One series concerns the target T1, ERα (Homo sapiens, UniProt P03372).
T1 sequence (P03372 311-547 limits assumed): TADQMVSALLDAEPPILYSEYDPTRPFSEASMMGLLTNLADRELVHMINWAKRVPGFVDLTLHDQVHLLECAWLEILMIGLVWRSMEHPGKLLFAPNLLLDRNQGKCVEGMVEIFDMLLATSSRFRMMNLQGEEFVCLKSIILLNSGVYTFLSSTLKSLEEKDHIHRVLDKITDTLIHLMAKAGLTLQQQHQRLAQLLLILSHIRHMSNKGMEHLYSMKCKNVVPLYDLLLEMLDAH
Briefly: HEK293/GAL4/ERα antagonist assay (luciferase reporter). In kind it is cell-based. The note with it: 1 nM estradiol, read-out: IC50 (nM), antagonistic effect. Here is the method: (2) HEK293/GAL4/ERα Antagonist Assay
DMEM (without phenol red) containing 10% charcoal-stripped serum (i.e., 450 mL DMEM and 50 mL charcoal-stripped serum in 500 mL medium)
The antagonistic effect of the compound of formula (I) on ERα, was analyzed using triplicate wells with compound concentration ranging from 200 nM to 0.00256 nM.
• 1) The HEK293/GAL4/ERα cell suspension was collected and centrifuged at 1000 rpm for 5 minutes. The supernatant was discarded, and the cells were resuspended in pre-warmed experimental medium. After counting, the cell suspension was diluted with experimental medium. 40000 cells per well were seeded into a 96-well cell culture plate, with 80 μL of cell suspension per well. […] Subsequently, 10 μL of assay medium containing 10 nM estradiol was added to each well. For blank controls, 10 μL of assay medium was added. A final estradiol concentration of 1 nM was ensured. […] The plate was incubated at 25° C. for 2 minutes. After incubation, the luminescence signal was then detected using an EnVision plate reader. Data Analysis:
GraphPad Prism software was used to plot the data and calculate the IC50 values for the compound.
On the technique in general: Reporter assays use an easily measured gene product as a stand-in for the process of interest.

Another series concerns CAMA-1 cells. Briefly: CAMA-1 cell proliferation inhibition assay (CTG). The class given is cell-based. The note with it: Homo sapiens, 1 nM estradiol. Here is the method: (4) MCF-7, T-47D, and CAMA-1 Cell Proliferation Inhibition Assay
CAMA-1: EMEM (without phenol red) containing 10% charcoal-stripped serum (500 mL culture medium containing 440 mL EMEM, 50 mL charcoal-stripped serum, 5 mL NEAA, 5 mL 100 mM sodium pyruvate).
The inhibitory effect of the test compound of formula (I) on the proliferation of MCF-7, CAMA-1, and T-47D cells was analyzed. For MCF-7 cells, ten concentration gradients ranging from 100 nM to 0.0003815 nM were tested, with three replicates for each concentration. For CAMA-1 cells, nine concentration gradients ranging from 100 nM to 0.001526 nM were tested, also with three replicates for each concentration. For T-47D cells, nine concentration gradients ranging from 2 μM to 0.00512 nM were tested, with three replicates for each concentration. Each experiment was conducted twice independently.
The CAMA-1 cells were treated with starvation medium for three days, followed by trypsin digestion, centrifugation, resuspension, and counting. Cell suspensions were prepared using the corresponding culture medium, and 80 μL of the suspension was added to each well of a 96-well plate. The plate was then incubated at 37° C. in a cell incubator with 5% CO2. The test compound of formula (I) was dissolved in DMSO to an initial concentration of 20 μM and subjected to a 4-fold serial dilution to achieve nine different concentrations. After overnight incubation, the diluted compound was further diluted with the corresponding cell culture medium. The resulting mixture was transferred to the respective wells of the cell plate, starting with a final concentration of 100 nM, followed by a 4-fold serial dilution to achieve nine concentrations. The positive control wells contained 2 μM fulvestrant, and 1 nM estradiol was added to the entire plate. […]
After incubation for the specified time, the cell culture plate was removed, and the CTG reagent was added. […] The readings were taken using the Envision multi-label analyzer. […]

The next series addresses CYP3A (Homo sapiens, UniProt P08684). Briefly: Inhibition of cytochrome P450 isozymes in human liver microsomes, CYP3A. In kind it is in vitro ADME. Here is the method: (1) Study on the Inhibition of Cytochrome P450 Isozymes
The probe substrate, test compound, human liver microsomes, and cofactors were incubated together. The concentration of the metabolic product of the probe substrate was detected using LC-MS/MS to calculate the IC50 values. In the vehicle control samples, the test compound was replaced with an equal volume of vehicle, and the enzyme activity of the vehicle control samples was set as 100%. […]
Upon reaching the respective reaction times for the incubation systems of the various isoenzymes, 200 μL of termination solution containing the appropriate internal standard was added to the reaction plate to terminate the reaction. […] The metabolites of the probe substrates were then analyzed using LC-MS/MS. […]
The activity of various CYP isoenzymes was reflected by the production rate of metabolites from each probe substrate. […] The residual activity percentage of each isoenzyme was determined by comparing the metabolite production rate of the probe substrate in the presence of different concentrations of the test compound or positive inhibitor to that of the vehicle control samples, then multiplying by 100%. […]
A general note: Microsomes from liver hold many membrane-bound enzymes, among them those of drug oxidation.

Where two headings read alike, the source gives them in different places.

Usually IC50 stands for the midpoint of a concentration-inhibition curve.

Chain of CYP3A (P08684 2-503): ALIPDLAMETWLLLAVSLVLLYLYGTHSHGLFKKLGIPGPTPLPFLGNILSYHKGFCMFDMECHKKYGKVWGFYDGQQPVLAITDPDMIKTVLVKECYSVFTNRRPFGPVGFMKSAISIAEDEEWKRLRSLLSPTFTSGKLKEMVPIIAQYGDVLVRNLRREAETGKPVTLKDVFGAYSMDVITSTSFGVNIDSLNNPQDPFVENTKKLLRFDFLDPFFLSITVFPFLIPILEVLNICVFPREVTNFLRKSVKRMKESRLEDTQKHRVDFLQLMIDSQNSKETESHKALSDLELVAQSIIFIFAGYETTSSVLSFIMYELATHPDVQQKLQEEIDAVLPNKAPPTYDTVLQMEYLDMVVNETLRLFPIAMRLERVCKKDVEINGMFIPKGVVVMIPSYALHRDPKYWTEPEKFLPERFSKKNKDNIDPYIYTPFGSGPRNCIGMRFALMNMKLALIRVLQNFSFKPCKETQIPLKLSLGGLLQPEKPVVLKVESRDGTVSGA

On to `FCCCN1CC[C@H](Nc2cnc(C3=C(CC(F)(F)F)CCCc4c3ccc3[nH]nc(F)c43)cn2)C1` [Compound of formula (I)], for which the IC50 stood at 0.0857 ± 0.0103 nM on ERα (Mean ± SD); 0.096 nM at ERα (N = 1); 0.075 nM on ERα (N = 2); 1.19 nM with CAMA-1 cells (CAMA-1, First experiment); 1.29 ± 0.1 nM in the series on CAMA-1 cells (CAMA-1, Mean ± SD); 1.39 nM in the series on CAMA-1 cells (CAMA-1, Second experiment). The molecule further displayed an IC50 at 3 min at CYP3A (probe midazolam, midazolam as the substrate) of 8380 nM. The molecule further had an IC50 at 10 min at CYP3A (probe testosterone, testosterone as the substrate) of 10900 nM.

Source of the values: patent US12410155B2, “Salt form and crystal form of tetrahydrocyclohepta indazole compound” (Zhejiang Yangli Pharmaceutical Technology Co., Ltd., priority 2021, dated 2025).
